# Assay results taken from article PMC12434668 (Journal of Medicinal Chemistry, 2025).
# Like-named read-outs stand apart in the source and are kept apart here.
# How the values were obtained:
# [1] = tested on: NCI-H929 cells; experiment: In vitro proliferation assay (CellTiter-Glo), H929; format: cell-based; conditions: Homo sapiens, H929 cell line, average of at least n = 2, triplicate
# Experimental: (§1) NCI-H929, A427, and K562 cell lines were obtained from ATCC. NCI-H929 cells were cultured in RPMI1640 (ATCC-formulated, Catalog No. 30-2001) + 10% fetal calf serum (FCS, GIBCO BRL, Cat. No. 26140) + 0.05 mM mercaptoethanol. A-427 cells were cultured in RPMI1640 (ATCC-formulated, Catalog No. 30-2001) + 10% fetal calf serum (FCS, GIBCO BRL, Cat. No. 26140). K562 cell lines were cultured in Iscove’s Modified Dulbecco Medium (Gibco-formulated, purchased from Thermo-Fisher, Cat. No. 12440-053) + 10% fetal bovine serum (FBS, Sigma-Aldrich, F2442). All cell lines were cultured at 37 °C with 5% CO2 in a humidified incubator and have been regularly tested negatively for mycoplasm contamination.
# (§2) Cells were seeded at 750–1500 cells per well (depending on growth kinetics) in 384-well plates (Corning, Catalog No. 3707) or at 3000 cells per well in 96-well plates in the respective growth medium and allowed to settle overnight. Suspension cells were plated immediately before compound addition. Adherent cell lines were incubated overnight at 37 °C in a tissue culture incubator prior to compound addition. Compounds were added in triplicates using an HP D300e Digital Dispenser (Hewlett-Packard) or manually at the concentrations indicated and total volumes were normalized using DMSO backfill, with final DMSO concentration of 0.5%. Control wells were treated with DMSO only. Following incubation for 72 or 96 h, a Cell Titer-Glo assay was conducted following the manufacturer recommendations (Promega, G9243) and luminescence was measured using a Victor X5 (PerkinElmer) or a Cytation 3 (Biotek) plate reader. % Viability was defined as relative luminescence units (RLU) of each well divided by the RLU of cells on day 0. Four parameter sigmoidal dose–response curves were generated and IC50 values were determined using XLFit (IDBS) software (eq 205) or in-house software. Drug combination experiments were performed in 96-well or 384-well format and drug synergy was determined using the BLISS model (PMID: 26171228).
# [2] = tested on: caspase 3/7 in A427 cells; experiment: Caspase 3/7 induction assay (Caspase-Glo), A427; format: cell-based; conditions: compound treatment for 3 h; for EC50: Homo sapiens, A-427
# Experimental: (§3) Cells were treated with a 10-point compound titration and incubated at 37 °C for 3 h.
# [3] = tested on: K562 cells; experiment: In vitro proliferation counterscreen, Mcl-1 insensitive K562; format: cell-based; conditions: Homo sapiens; Mcl-1 insensitive K562; top concentration tested 12.5 µM
# Experimental: NCI-H929, A427, and K562 cell lines were obtained from ATCC.
# Suspension cells were plated immediately before compound addition. Adherent cell lines were incubated overnight at 37 °C in a tissue culture incubator prior to compound addition. Compounds were added in triplicates using an HP D300e Digital Dispenser (Hewlett-Packard) or manually at the concentrations indicated and total volumes were normalized using DMSO backfill, with final DMSO concentration of 0.5%. Control wells were treated with DMSO only. Following incubation for 72 or 96 h, a Cell Titer-Glo assay was conducted following the manufacturer recommendations (Promega, G9243) and luminescence was measured using a Victor X5 (PerkinElmer) or a Cytation 3 (Biotek) plate reader. % Viability was defined as relative luminescence units (RLU) of each well divided by the RLU of cells on day 0.
# [4] = tested on: caspase 3/7 in K562 cells; experiment: Caspase 3/7 induction assay (Caspase-Glo), K562; format: cell-based; conditions: compound treatment for 3 h; for EC50: Homo sapiens, K562
# Experimental: as §3
# [5] = Mouse pharmacokinetic analyses (i.v. and oral); format: in vivo; conditions: plasma; for AUC: dose not printed at this place
# Experimental: For PK analysis, mice were administered intravenously or orally with compound formulated in 10% ethanol and 10% Cremophor EL. Compound 13 dosing was also screened with 20% Phosphal IPG, 20% Phosphal MCT, 10% HP-β-CD, and 40% HP-β-CD. Plasma samples were obtained at predefined time points and compound concentrations in plasma were measured by quantitative HPLC–MS/MS using an internal standard. Calibration and quality control samples were prepared using blank plasma from untreated animals. Samples were precipitated with acetonitrile and injected into a HPLC system (Agilent 1200). Separation was performed by gradients of 5 mmol/L ammonium acetate pH 5.0 and acetonitrile with 0.1% formic acid on a Luna C8 reversed-phase column with 2.5 μm particles (Phenomenex). The HPLC was interfaced by ESI operated in positive ionization mode to a triple quadrupole mass spectrometer (6500+ Triple Quad System, SCIEX) operated in multiple reaction monitoring mode. Chromatograms were analyzed with Analyst (SCIEX) and pharmacokinetic parameters were calculated by noncompartmental analysis using proprietary software.
# [6] = tested on: caspase 3/7 in H929 cells; experiment: Caspase 3/7 induction assay (Caspase-Glo), H929; format: cell-based; conditions: compound treatment for 3 h; for EC50: Homo sapiens, NCI-H929
# Experimental: as §3
# [7] = target: T1, Mcl-1 (Homo sapiens, UniProt Q07820); experiment: TR-FRET binding assay (FITC-Bak peptide competition)
# T1 construct: Briefly, a previously reported construct was subcloned into an expression vector (pDEST-HisMBP); MBP (from vector pDEST-HisMBP); made in house; host or cells: Escherichia coli BL21 CodonPlus (DE3) RIL
# Text: Protein preparation was described previously. Briefly, a previously reported construct was subcloned into an expression vector (pDEST-HisMBP) expressed in Escherichia coli BL21 CodonPlus (DE3) RIL (Stratagene) and purified through nickel-column and size-exclusion chromatography sequentially.
# Mixtures containing vehicle without compound served as a negative control, while mixtures containing no protein served as a positive control. […] Two or more repeats were obtained and average K i values are reported.
# [8] = tested on: A427 cells; experiment: In vitro proliferation assay (CellTiter-Glo), A427; format: cell-based; conditions: Homo sapiens, A-427; A427 cell line; average of at least n = 2, triplicate
# Experimental: as §1, §2
# [9] = Kinetic aqueous solubility; format: physicochemical; conditions: aqueous medium, pH 6.8
# [10] = iv, dosed at 20 mg/kg, read-out: i.v. mouse CL
# [11] = iv, supplementary CSV, unit not given (Table 1: 20 mg/kg, 14 and 16 at 10 mg/kg), read-out: CL
# [12] = in the presence of 1% fetal bovine serum, average of at least n = 2, read-out: TRFRET, Mcl-1 Ki
# [13] = supplementary CSV, unit inferred, read-out: Ki TRFRET
# T1 sequence (Q07820 whole entry): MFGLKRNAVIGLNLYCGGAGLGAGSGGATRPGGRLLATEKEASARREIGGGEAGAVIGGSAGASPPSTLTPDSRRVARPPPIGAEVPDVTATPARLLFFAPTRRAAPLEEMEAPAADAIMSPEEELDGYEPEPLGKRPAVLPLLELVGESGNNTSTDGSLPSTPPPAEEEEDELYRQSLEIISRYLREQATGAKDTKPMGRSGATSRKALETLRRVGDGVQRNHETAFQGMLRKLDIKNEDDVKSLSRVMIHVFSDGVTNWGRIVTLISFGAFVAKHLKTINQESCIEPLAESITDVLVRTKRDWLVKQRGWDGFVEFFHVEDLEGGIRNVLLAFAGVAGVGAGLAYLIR
SMILES,GI50 [1],EC50 [2],EC50 [4],"clearance [5, 10]","clearance [5, 11]",EC50 [6],"Ki [7, 12]","Ki [7, 13]",solubility kinetic [9],"AUC ([5]; iv, read-out: AUCIV)","AUC ([5]; oral, read-out: AUCPO)","bioavailability ([5]; po, read-out: oral bioavailability (F))",A427 Caspase 3/7 fold over vehicle (FoV) [2],GI50 [3],K562 Caspase 3/7 fold over vehicle (FoV) [4],"H929 Caspase 3/7 maximum activity, fold over vehicle (FoV) [6]",GI50 [8]
"COc1c(OCC2CCOCC2)cc2c3c1cc(C(=O)O)n3CCCOCc1nn(C)cc1-c1c(Cl)ccc3c(CCCOc4cc(C)c(Cl)c(C)c4)c4n(c13)[C@H](C)CN2C4=O [Compound 20, (2^63^4 S a ,1^72^2 R a ,2^4 R)-2^7-Chloro-2^10-(3-(4-chloro-3,5-dimethylphenoxy)propyl)-1^4-methoxy-2^4,3^1-dimethyl-2^1-oxo-1^5-((tetrahydro-2H-pyran-4-yl)methoxy)-2^1,2^2,2^3,2^4-tetrahydro-1^1 H,3^1 H-5-oxa-2(2,6)-pyrazino[1,2-a]indola-1(7,1)-indola-3(4,3)-pyrazolacyclooctaphane-1^2-carboxylic Acid]",31 ± 13 nM,31 nM,> 3120 nM,8.9 mL/min/kg,8.9 mL/min/kg,23 nM,0.08 ± 0.02 nM,,,,,,14 fold,> 12500 nM,1.3 fold,16 fold,55 ± 26 nM
"COc1cc2c3c(cc(C(=O)N(C)C)n3CCCOCc3nn(C)cc3-c3c(Cl)ccc4c(CCCOc5cc(C)c(Cl)c(C)c5)c5n(c34)[C@H](C)CN2C5=O)c1OC [Compound 25, (2^63^4 S a ,1^72^2 R a ,2^4 R)-2^7-chloro-2^10-(3-(4-chloro-3,5-dimethylphenoxy)propyl)-1^4,1^5-dimethoxy-N,N,2^4,3^1-tetramethyl-2^1-oxo-2^1,2^2,2^3,2^4-tetrahydro-1^1 H,3^1 H-5-oxa-2(2,6)-pyrazino[1,2-a]indola-1(7,1)-indola-3(4,3)-pyrazolacyclooctaphane-1^2-carboxamide]",39 ± 7 nM,24 nM,> 3120 nM,6.4 mL/min/kg,6.4 mL/min/kg,17 nM,< 0.08 nM,0.077 nM,,136 µM·h,14 µM·h,22%,14 fold,> 12500 nM,1.4 fold,16 fold,105 ± 24 nM

# Further molecules by falling GI50 [1], results first:
GI50 [1],EC50 [2],EC50 [4],"clearance [5, 10]","clearance [5, 11]",EC50 [6],"Ki [7, 12]","Ki [7, 13]",solubility kinetic [9],"AUC ([5]; iv, read-out: AUCIV)","AUC ([5]; oral, read-out: AUCPO)","bioavailability ([5]; po, read-out: oral bioavailability (F))",SMILES,A427 Caspase 3/7 fold over vehicle (FoV) [2],GI50 [3],K562 Caspase 3/7 fold over vehicle (FoV) [4],"H929 Caspase 3/7 maximum activity, fold over vehicle (FoV) [6]",GI50 [8]
35 ± 16 nM,28 nM,> 3120 nM,14.8 mL/min/kg,14.8 mL/min/kg,36 nM,< 0.08 nM,0.04 nM,,,,,"COc1c(C)cc2c3c1cc(C(=O)O)n3CCCOCc1nn(C)cc1-c1c(Cl)ccc3c(CCCOc4cc(C)c(Cl)c(C)c4)c4n(c13)[C@H](C)CN2C4=O [Compound 18, (2^63^4 S a ,1^72^2 R a ,2^4 R)-2^7-Chloro-2^10-(3-(4-chloro-3,5-dimethylphenoxy)propyl)-1^4-methoxy-1^5,2^4,3^1-trimethyl-2^1-oxo-2^1,2^2,2^3,2^4-tetrahydro-1^1 H,3^1 H-5-oxa-2(2,6)-pyrazino [1,2-a]indola-1(7,1)-indola-3(4,3)-pyrazolacyclooctaphane-1^2-carboxylic Acid]",16 fold,> 12500 nM,1.4 fold,17 fold,51 ± 20 nM
29 ± 6 nM,,,3.5 mL/min/kg,3.5 mL/min/kg,,0.08 ± 0.01 nM,,11 µg/mL,,,,"COc1cc2c3c(cc(C(=O)O)n3CCCOCc3ccncc3-c3c(Cl)ccc4c(CCCOc5cc(C)c(Cl)c(C)c5)c5n(c34)[C@H](C)CN2C5=O)c1OC [Compound 22, (2^63^4 S a ,1^72^2 R a ,2^4 R)-2^7-Chloro-2^10-(3-(4-chloro-3,5-dimethylphenoxy)propyl)-1^4,1^5-dimethoxy-2^4-methyl-2^1-oxo-2^1,2^2,23,24-tetrahydro-11H-5-oxa-2(2,6)-pyrazino[1,2-a]indola-1(7,1)-indola-3(3,4)-pyridinacyclooctaphane-1^2-carboxylic Acid]",,> 12500 nM,,,58 ± 4 nM
17 ± 8 nM,17 nM,> 3120 nM,8 mL/min/kg,8 mL/min/kg,12 nM,< 0.08 nM,< 0.02 nM,,,,,"COc1cc2c3c(cc(C(=O)O)n3CCCOCc3ncccc3-c3c(Cl)ccc4c(CCCOc5cc(C)c(Cl)c(C)c5)c5n(c34)[C@H](C)CN2C5=O)c1OC [Compound 21, (2^63^4 S a ,1^72^2 R a ,2^4 R)-2^7-Chloro-2^10-(3-(4-chloro-3,5-dimethylphenoxy)propyl)-1^4,1^5-dimethoxy-2^4-methyl-2^1-oxo-2^1,2^2,2^3,2^4-tetrahydro-1^1 H-5-oxa-2(2,6)-pyrazino[1,2-a]indola-1(7,1)-indola-3(3,2)-pyridinacyclooctaphane-1^2-carboxylic Acid]",14 fold,> 12500 nM,1.4 fold,16 fold,39 ± 7 nM
10 ± 3 nM,13 nM,> 3120 nM,19.8 mL/min/kg,19.8 mL/min/kg,11 nM,< 0.08 nM,< 0.02 nM,,,,,"COCCOc1cc2c3c(cc(C(=O)O)n3CCCOCc3nn(C)cc3-c3c(Cl)ccc4c(CCCOc5cc(C)c(Cl)c(C)c5)c5n(c34)[C@H](C)CN2C5=O)c1OC [Compound 19, (2^63^4 S a ,1^72^2 R a ,2^4 R)-2^7-Chloro-2^10-(3-(4-chloro-3,5-dimethylphenoxy)propyl)-1^4-methoxy-1^5-(2-methoxyethoxy)-2^4,3^1-dimethyl-2^1-oxo-2^1,2^2,2^3,2^4-tetrahydro-1^1 H,3^1 H-5-oxa-2(2,6)-pyrazino[1,2-a]indola-1(7,1)-indola-3(4,3)-pyrazolacyclooctaphane-1^2-carboxylic Acid]",14 fold,> 11200 nM,1.4 fold,16 fold,18 ± 6 nM
